Measurements as given in patent US20130317040A1, “METHODS FOR TREATING SYSTEMIC LUPUS ERYTHEMATOSUS USING HIV PROTEASE INHIBITORS” (The Feinstein Institute of Medical Research, priority 2010, published 2013).

Tests used:
[1] = system: lupus anti-dsDNA monoclonal antibody, R4A; experiment: Competitive ELISA, R4A binding to bound C1q protein; design: species or system mouse; details: at the most effective concentration of compound
Method: (§1) To test whether these antiviral drugs might inhibit R4A binding, competitive ELISAs, with bound DWEYS peptide, bound dsDNA, or bound C1q protein, were performed. […] Activity in these ELISAs is predictive of binding activity with naturally occurring anti-dsDNA antibodies in lupus patients.
(§2) ELISAs. […] Antigens were absorbed to microtiter plate wells (either D-DWEYS (20 μg/ml) in PBS, calf thymus DNA (100 μg/ml) in NaHCO3 (0.1M, pH 8.6) or full length complement component C1q (10-20 μg/ml) in PBS) overnight at 37° C. […] The competitive ELISA was performed as described, using R4A monoclonal antibodies (2-20 μg/ml). […] The plates were washed and alkaline phosphatase-conjugated goat anti-mouse IgG antibody was added for 1 h at 37° C.

[2] = system: lupus anti-dsDNA monoclonal antibody, R4A; experiment: Competitive ELISA, R4A binding to bound dsDNA (calf thymus DNA); design: species or system mouse; details: for inhibition of R4A binding, DNA: competitive ELISA, bound calf thymus DNA, at the most effective concentration of compound
Method: as §1, §2

[3] = system: lupus anti-dsDNA monoclonal antibody, R4A; experiment: Competitive ELISA, R4A binding to bound DWEYS peptide; design: species or system mouse; details: for inhibition of R4A binding, DWEYS: competitive ELISA, bound D-DWEYS, at the most effective concentration of compound; for inhibition of R4A binding to D-DWEYS-5 peptide on ELISAs: R4A 2 μg/ml, 1 μM, 10 μM and 100 μM, highest concentrations showed the greatest inhibition
Method: as §1, §2

[4] = system: mouse monoclonal anti-dsDNA antibody, R4A; experiment: Deposition of R4A to kidney glomeruli ex vivo; type: binding; details: detected with fluorescently-labeled secondary antibody
Source text: Nephrotoxicity: nelfinavir was also found to suppress pathologic deposition of mouse monoclonal anti-dsDNA antibody, […], to kidney glomeruli ex vivo. […] For methodology see Bloom, O. et al., (2011), PNAS 108:10255-10259 and Zhang, J. et al., (2009), J. Autoimmun. 33:270-274.

cytochrome P-450 enzymes = details: cited from earlier work
[5] = system: R4A-induced apoptosis in the central nervous system; experiment: R4A-induced neurotoxicity in vivo, hippocampal injection, TUNEL staining; details: R4A pre-incubated with inhibitor 15 min at 37° C., injected into hippocampus; brain slices after 48 hours
Method: Neurotoxicity: protection from R4A-induced apoptosis in the central nervous system was assessed by TUNEL staining. […] R4A was pre-incubated with vehicle or HIV protease inhibitors for 15 min. at 37° C. The preparation was then stereotaxically injected into the hippocampus of test animals. After 48 hours, brain slices at the injection site were subjected to TUNEL staining. […] For methodology see Bloom, O. et al., (2011), supra, and Zhang, J. et al., (2009), supra.

[6] = in vivo; cited from earlier work
[7] = system: lupus patient sera components binding to DNA (anti-dsDNA antibodies); experiment: ELISA, lupus patient sera binding to DNA; design: species or system human; details: compound at 1, 10 and 100 micromolar; sera from lupus patients with elevated anti-dsDNA titers
Source text: In early tests, inhibition of lupus patient sera components binding to DNA by nelfinavir was observed (data not shown). Sera, collected from lupus patients with moderately active disease and elevated titers of anti-dsDNA antibodies, was used for an ELISA assay for binding to DNA. The addition of nelfinavir in micromolar concentrations of 1, 10 and 100 decreased DNA binding by an average of 43%.

[8] = R4A 5 μg/ml, compound at 25 μM and 50 μM

Row | Compound | inhibition of R4A binding, C1q assay [1] | inhibition of R4A binding, DNA [2] | inhibition of R4A binding, DWEYS [3] | inhibition of R4A binding to D-DWEYS-5 peptide on ELISAs [3] | R4A binding (deposition) to kidney glomeruli ex vivo [4] | metabolizing cytochrome P-450 enzymes (cytochrome P-450 enzymes) | inhibition of R4A binding to DNA on ELISAs [2, 8] | inhibition of R4A binding to DWEYS peptide on ELISAs [3, 8] | protection from R4A neurotoxicity (TUNEL staining) [5] | time until steady state of the drug is achieved [6] | decrease of lupus patient sera DNA binding (average) [7]
1 | CC(C)(C)NCC1CC2CCCCC2CN1CC(O)C(Cc1ccccc1)NCC(CCN)NCC1Nc2ccccc2CC1O (stereo not shown) [12W, 2-((4-amino-1-(4-(3-((tert-butylamino)methyl)octahydroisoquinolin-2(1H)-yl)-3-hydroxy-1-phenylbutan-2-ylamino)butan-2-ylamino)methyl)-1,2,3,4-tetrahydroquinolin-3-ol] | 18% | 32% | 31% |  |  |  |  |  |  |  | 
2 | COC(=O)N[C@H](C(=O)N[C@@H](Cc1ccccc1)[C@@H](O)CN(Cc1ccc(-c2ccccn2)cc1)NC(=O)[C@@H](NC(=O)OC)C(C)(C)C)C(C)(C)C [Atazanavir, atazanavir] | 64% | 38% | 46% | improved inhibition | only nelfinavir decreased |  |  |  |  |  | 
3 | CC(C)CN(C[C@@H](O)[C@H](Cc1ccccc1)NC(=O)O[C@H]1CO[C@H]2OCC[C@H]21)S(=O)(=O)c1ccc(N)cc1 [Darunavir, darunavir] | 0% | 3% | 16% |  |  |  |  |  |  |  | 
4 | Cc1cccc(C)c1OCC(=O)N[C@@H](Cc1ccccc1)[C@@H](O)C[C@H](Cc1ccccc1)NC(=O)[C@H](C(C)C)N1CCCNC1=O [Lopinavir, lopinavir] | 38% | 32% | 56% | improved inhibition | only nelfinavir decreased |  |  |  |  |  | 
5 | CC(C)c1nc(CN(C)C(=O)N[C@H](C(=O)N[C@@H](Cc2ccccc2)C[C@H](O)[C@H](Cc2ccccc2)NC(=O)OCc2cncs2)C(C)C)cs1 [Ritonavir, ritonavir] | 13% | 0% | 8% |  |  |  |  |  |  |  | 
6 | CC(C)(C)NC(=O)[C@@H]1C[C@@H]2CCCC[C@@H]2CN1C[C@@H](O)[C@H](Cc1ccccc1)NC(=O)[C@H](CC(N)=O)NC(=O)c1ccc2ccccc2n1 [Saquinavir, saquinavir] | 54% | 31% | 33% | improved inhibition | only nelfinavir decreased |  |  |  |  |  | 
7 | Cc1c(O)cccc1C(=O)N[C@@H](CSc1ccccc1)[C@H](O)CN1C[C@H]2CCCC[C@H]2C[C@H]1C(=O)NC(C)(C)C [nelfinavir] |  |  |  |  | decreased the R4A binding | CYP3A4, CYP2C19, CYP2C9, and CYP2D6 | Significant inhibition | Significant inhibition | block neurotoxicity | 6 days | 43%
